Experimental data from patent US10710994B2, “Oxadiazole transient receptor potential channel inhibitors” (Genentech, Inc., priority 2018, dated 2020).
Read-outs that look alike come from different tables or passages of the source.

Biological target: human TRPA1 channel (Homo sapiens (Human), UniProt O75762)
Experiment: hTRPA1 CHO Ca2+ FLIPR Tetra assay: block of cinnamaldehyde induced calcium influx
Type: cell-based
Conditions: CHO cells expressing TRPA1, Hill coefficient fixed to 1.5
Description: CHO cells expressing TRPA1 were plated into 384-well plates, incubated overnight at 37° C., and loaded with BD calcium indicator dye for 1 hr at 37° C. followed by 15 minutes at room temperature. The assay buffer was Hank's Balanced Salt Solution (HBSS) containing 20 mM HEPES (pH readjusted to 7.4) along with 0.02% BSA.
Following dye load and plate cool down, compounds were added to the cells using FLIPR Tetra. Plates were then incubated with compounds for 10 minutes or 90 minutes at room temperature prior to adding agonist. Following this incubation, about an EC80 concentration of cinnamaldehyde […] was added to active the channels and block of cinnamaldehyde induced calcium influx was measured.
Fixing the Hill coefficient will generally reduce variability of the IC50 determination. The IC50 results were individually examined to make sure the MIN and MAX points were set correctly prior to validation of the results.

[1] = read-out: hTRPA1 IC50 10 min, 10 minutes incubation with compound before cinnamaldehyde (about EC80)
[2] = read-out: hTRPA1 IC50 90 min, 90 minutes incubation with compound before cinnamaldehyde (about EC80)
[3] = hTRPA1 IC50 90 min, 90 minutes incubation with compound before cinnamaldehyde (about EC80)

Chain of human TRPA1 channel (O75762 whole entry): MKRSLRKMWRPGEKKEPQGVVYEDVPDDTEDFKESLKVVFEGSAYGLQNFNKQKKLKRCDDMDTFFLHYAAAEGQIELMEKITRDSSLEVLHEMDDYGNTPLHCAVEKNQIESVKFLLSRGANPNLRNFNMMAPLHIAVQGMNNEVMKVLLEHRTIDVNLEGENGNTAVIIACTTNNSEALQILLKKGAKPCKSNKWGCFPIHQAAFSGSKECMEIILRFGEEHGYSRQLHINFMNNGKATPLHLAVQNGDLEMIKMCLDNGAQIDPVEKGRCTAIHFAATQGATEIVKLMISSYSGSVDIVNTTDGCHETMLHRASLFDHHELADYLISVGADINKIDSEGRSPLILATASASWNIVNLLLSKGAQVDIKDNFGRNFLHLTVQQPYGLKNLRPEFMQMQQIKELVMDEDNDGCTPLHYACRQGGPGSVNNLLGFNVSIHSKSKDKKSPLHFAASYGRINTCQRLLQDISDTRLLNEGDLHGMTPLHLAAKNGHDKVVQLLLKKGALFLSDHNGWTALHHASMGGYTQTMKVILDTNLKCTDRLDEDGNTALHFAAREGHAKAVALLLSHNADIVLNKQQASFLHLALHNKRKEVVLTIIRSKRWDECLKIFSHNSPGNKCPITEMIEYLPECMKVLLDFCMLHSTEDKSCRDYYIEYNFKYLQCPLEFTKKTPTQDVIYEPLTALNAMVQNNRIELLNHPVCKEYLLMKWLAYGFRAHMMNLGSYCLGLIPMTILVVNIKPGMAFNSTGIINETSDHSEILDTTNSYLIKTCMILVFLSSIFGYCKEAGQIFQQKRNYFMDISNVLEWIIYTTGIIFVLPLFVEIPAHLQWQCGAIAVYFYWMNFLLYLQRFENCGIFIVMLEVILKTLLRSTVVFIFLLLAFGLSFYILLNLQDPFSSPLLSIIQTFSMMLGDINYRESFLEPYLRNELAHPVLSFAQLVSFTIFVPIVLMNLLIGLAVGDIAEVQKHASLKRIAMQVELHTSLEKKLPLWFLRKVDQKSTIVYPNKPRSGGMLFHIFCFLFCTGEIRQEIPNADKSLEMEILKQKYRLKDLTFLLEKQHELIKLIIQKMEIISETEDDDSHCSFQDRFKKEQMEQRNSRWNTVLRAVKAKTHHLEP

Row | SMILES | IC50 [1] [nM] | IC50 [2] [nM] | IC50 [3] [nM] | IC50 (hTRPA1 IC50 10 min, 10 minutes incubation with compound before cinnamaldehyde (about EC80)) [nM]
1 | Cc1cnn2ncn(Cc3nc([C@@H]4CO[C@@H](c5ccc(C#N)cc5)C4)no3)c(=O)c12 [Example 122, 4-((2R,4R)-4-(5-((5-methyl-4-oxopyrazolo[5,1-f][1,2,4]triazin-3(4H)-yl)methyl)-1,2,4-oxadiazol-3-yl)tetrahydrofuran-2-yl)benzonitrile] | 75.8 | 39 | – | –
2 | Cc1ncn2ncn(Cc3nc([C@@H]4CO[C@@H](c5ccc(Cl)cc5)C4)no3)c(=O)c12 [Example 64, 3-((3-((3R,5R)-5-(4-chlorophenyl)tetrahydro-furan-3-yl)-1,2,4-oxadiazol-5-yl)methyl)-5-methylimidazo[1,5-f] [1,2,4]triazin-4(3H)-one] | 20.6 | 15 | – | –
3 | Cn1cnc2ncn(Cc3nc([C@@H]4CO[C@@]5(Cc6ccccc65)C4)no3)c(=O)c21 [Example 43, 1-((3-((4′R,7R)-4′,5′-dihydro-3′H-spiro[bicyclo[4.2.0]octane-7,2′-furan]-1(6),2,4-trien-4′-yl)-1,2,4-oxadiazol-5-yl)methyl)-7-methyl-1,7-dihydro-6H-purin-6-one] | 278 | 140 | – | –
4 | Cc1cnn2ncn(Cc3nc([C@@H]4CO[C@@H](c5ccc6cnn(C)c6c5)C4)no3)c(=O)c12 [Example 138, 5-methyl-3-((3-((3R,5R)-5-(1-methyl-1H-indazol-6-yl)tetrahydrofuran-3-yl)-1,2,4-oxadiazol-5-yl)methyl)pyrazolo[5,1-f][1,2,4]triazin-4(3H)-one] | 8.26 | 2.3 | – | –
5 | Cn1cnc2ncn(Cc3nc([C@@H]4CO[C@@H](c5ccc(Cl)cn5)C4)no3)c(=O)c21 [Example 41, 1-((3-((3R,5R)-5-(5-chloropyridin-2-yl)tetrahydrofuran-3-yl)-1,2,4-oxadiazol-5-yl)methyl)-7-methyl-1,7-dihydro-6H-purin-6-one] | 190 | 170 | – | –
6 | Cc1nc(C)n2ncn(Cc3nc([C@@H]4CO[C@@H](c5ccc(Cl)cc5)C4)no3)c(=O)c12 (racemic) [Example 97, 5,7-dimethyl-3-[[3-[rac-(3R,5R)-5-(4-chlorophenyl)tetrahydro-furan-3-yl]-1,2,4-oxadiazol-5-yl]methyl] imidazo[5,1-f][1,2,4] triazin-4-one] | – | – | 45 | –
7 | Cn1cnc2ncn(Cc3nc([C@@H]4CO[C@@H](c5ccc(F)c(Cl)c5)C4)no3)c(=O)c21 [Example 35, 1-((3-((3R,5R)-5-(3-chloro-4-fluorophenyl)tetrahydro-furan-3-yl)-1,2,4-oxadiazol-5-yl)methyl)-7-methyl-1,7-dihydro-6H-purin-6-one] | 16.4 | 3.6 | – | –
8 | Cc1nc(NC2CNC2)n2ncn(Cc3nc([C@@H]4CO[C@@H](c5ccc(Cl)cc5)C4)no3)c(=O)c12 [Example 79] | – | 92 | – | –
9 | Cc1cnn2ncn(Cc3nc([C@@H]4CO[C@@H](c5ccc(Cl)cc5)C4)no3)c(=O)c12 [Example 48, 3-((3-((3R,5R)-5-(4-chlorophenyl)tetra-hydrofuran-3-yl)-1,2,4-oxadiazol-5-yl)methyl)-5-methylpyrazolo[5,1-f][1,2,4]triazin-4(3H)-one] | 1.2 | 0.8 | – | –
10 | Cc1cncc2ncn(Cc3nc([C@@H]4CO[C@@H](c5ccc(Cl)cc5)C4)no3)c(=O)c12 [Example 44, 3-((3-((3R,5R)-5-(4-chlorophenyl)tetrahydro-furan-3-yl)-1,2,4-oxadiazol-5-yl)methyl)-5-methylpyrido[3,4-d]pyrimidin-4(3H)-one] | 3.2 | 1.3 | – | –
11 | Cn1cnc2ccn(Cc3nc([C@@H]4CO[C@@H](c5ccc(F)cc5)C4)no3)c(=O)c21 [Example 56, 5-((3-((3R,5R)-5-(4-fluorophenyl)tetrahydro-furan-3-yl)-1,2,4-oxadiazol-5-yl)methyl)-3-methyl-3,5-dihydro-4H-imidazo[4,5-c]pyridin-4-one] | 6.76 | 1.9 | – | –
12 | O=c1c2c(Cl)ccnc2ncn1Cc1nc([C@@H]2CO[C@@H](c3ccc(F)cc3)C2)no1 (racemic) [Example 95, 5-chloro-3-[[3-[rac-(3R,5R)-5-(4-fluorophenyl)tetrahydrofuran-3-yl]-1,2,4-oxadiazol-5-yl]methyl] pyrido[2,3-d]pyrimidin-4-one] | – | – | 15 | –
13 | Cc1cnn2ncn(Cc3nc([C@@H]4CO[C@@H](c5ccc(F)cc5)C4)no3)c(=O)c12 [Example 66, 3-((3-((3R,5R)-5-(4-fluorophenyl)tetrahydro-furan-3-yl)-1,2,4-oxadiazol-5-yl)methyl)-5-methylpyrazolo[5,1-f] [1,2,4]triazin-4(3H)-one] | 8.47 | 1.6 | – | –
14 | Cn1cnc2nc(N)n(Cc3nc([C@@H]4CO[C@@H](c5ccc(S(F)(F)(F)(F)F)cc5)C4)no3)c(=O)c21 [Example 74, 2-amino-7-methyl-1-((3-((3R,5R)-5-(4-(pentafluoro-16-sulfanyl)phenyl)tetrahydrofuran-3-yl)-1,2,4-oxadiazol-5-yl)methyl)-1,7-dihydro-6H-purin-6-one] | 170 | 120 | – | –
15 | Cc1ccnc2cnn(Cc3nc([C@@H]4CO[C@@H](c5ccc(F)cc5)C4)no3)c(=O)c12 [Example 104, 6-[[3-[(3R,5R)-5-(4-fluorophenyl)tetrahydro-furan-3-yl]-1,2,4-oxadiazol-5-yl]methyl]-4-methyl-pyrido[2,3-d] pyridazin-5-one] | 7.2 | 6.7 | – | –
16 | Cc1nc(N2CCOCC2)n2ncn(Cc3nc([C@@H]4CO[C@@H](c5ccc(Cl)cc5)C4)no3)c(=O)c12 (racemic) [Example 101, 5-methyl-7-morpholino-3-[[3-[rac-(3R,5R)-5-(4-chlorophenyl)tetrahydro-furan-3-yl]-1,2,4-oxadiazol-5-yl]methyl]imidazo[5,1-f][1,2,4]triazin-4-one] | – | – | 96 | 123
17 | Cc1nc(N2CCNCC2)n2ncn(Cc3nc([C@@H]4CO[C@@H](c5ccc(Cl)cc5)C4)no3)c(=O)c12 (racemic) [Example 91, formic acid; 5-methyl-7-piperazin-1-yl-3-[[3-[rac-(3R,5R)-5-(4-chlorophenyl)tetrahydro-furan-3-yl]-1,2,4-oxadiazol-5-yl]methyl] imidazo[5,1-f][1,2,4]triazin-4-one] | – | – | 330 | –
18 | N#Cc1cnn2ncn(Cc3nc([C@@H]4CO[C@@H](c5ccc(Cl)cc5)C4)no3)c(=O)c12 [Example 115, 3-((3-((3R,5R)-5-(4-chlorophenyl)tetrahydro-furan-3-yl)-1,2,4-oxadiazol-5-yl)methyl)-4-oxo-3,4-dihydro-pyrazolo[5,1-f][1,2,4] triazine-5-carbonitrile] | 94.9 | 40 | – | –
19 | Cc1cc(=O)nc2ccn(Cc3nc([C@@H]4CO[C@@H](c5ccc(Cl)cc5)C4)no3)c(=O)n12 [Example 63] | 9.26 | 2.8 | – | –
20 | Cc1ccnc2ncn(Cc3nc([C@@H]4CO[C@@H](c5ccc(Cl)cc5)C4)no3)c(=O)c12 [Example 54, 3-((3-((3R,5R)-5-(4-chlorophenyl)tetrahydro-furan-3-yl)-1,2,4-oxadiazol-5-yl)methyl)-5-methylpyrido[2,3-d] pyrimidin-4(3H)-one] | 2.14 | 0.73 | – | –
21 | Cc1ccnc2c1c(=O)nc(N)n2Cc1nc([C@@H]2CO[C@@H](c3ccc(Cl)cc3)C2)no1 [Example 134, 2-amino-1-((3-((3R,5R)-5-(4-chlorophenyl)tetrahydro-furan-3-yl)-1,2,4-oxadiazol-5-yl)methyl)-5-methylpyrido[2,3-d] pyrimidin-4(1H)-one] | 20 | 6 | – | –
22 | Cc1ncn2nc(N)n(Cc3nc([C@@H]4CO[C@@H](c5ccc(F)cc5)C4)no3)c(=O)c12 [Example 85, 2-amino-3-((3-((3R,5R)-5-(4-fluorophenyl)tetra-hydrofuran-3-yl)-1,2,4-oxadiazol-5-yl)methyl)-5-methylimidazo[5,1-f] [1,2,4]triazin-4(3H)-one] | 15.5 | 6 | – | –
23 | Nc1ccc2c(=O)n(Cc3nc([C@@H]4CO[C@@H](c5ccc(Cl)cc5)C4)no3)cnc2n1 [Example 28, 7-amino-3-((3-((3R,5R)-5-(4-chlorophenyl)tetrahydro-furan-3-yl)-1,2,4-oxadiazol-5-yl)methyl)pyrido[2,3-d]pyrimidin-4(3H)-one] | 6.32 | 3.9 | – | –
24 | Cn1cnc2ncn(Cc3nc([C@@H]4CO[C@@H](c5ccccc5Cl)C4)no3)c(=O)c21 [Example 14, 1-((3-((3R,5R)-5-(2-chlorophenyl)tetra-hydrofuran-3-yl)-1,2,4-oxadiazol-5-yl)methyl)-7-methyl-1,7-dihydro-6H-purin-6-one] | 335 | 160 | – | –
25 | Cn1cnc2ncn(Cc3nc([C@@H]4CO[C@@H](c5ccc(Cl)cc5)C4)no3)c2c1=O [Example 55, 7-((3-((3R,5R)-5-(4-chlorophenyl)tetrahydro-furan-3-yl)-1,2,4-oxadiazol-5-yl)methyl)-1-methyl-1,7-dihydro-6H-purin-6-one] | 19 | 12 | – | –
